What follows are compounds tested on Sertoli cells (assay: Inhibition of in vitro Sertoli cell ablation with BC by cell death pathway inhibitors). Details: 30 min inhibitor pre-treatment, 10 min BC, culture with inhibitor 4 days, neonatal testis.
Format: cell-based, mouse
Procedure: Fragments of the mouse testis were incubated with 0.02% BC for 10 min. After washing several times with PBS, tissues were placed atop 1.5% agarose blocks (214530; Difco), prepared and placed in 6 well tissue culture plates (353046; Falcon) with ˜500 μl of 10% FBS+DMEM (11995-065; Gibco) to reach halfway up the side of the block. After culture, tissues were washed in PBS and fixed for immunofluorescence. The dog testis tissues were incubated with 0.02% or 0.03% BC for 10 min and cultured with 10% KnockOut Serum Replacement (KSR) (Invitrogen; 10828-028)+DMEM (Yokonishi, T., et al. Methods in Molecular Biology 927: 479-488 (2013)). The culture incubator was supplied with 5% (vol/vol) carbon dioxide in air and maintained at 37° C. Q-VD (OMe)-OPh (A8165; ApexBio), Necrostatin-1, Spautin-1 (Sigma; SML0440), 3-Methyladenine (Cayman; CAS 5142-23-4), LY294002 (Cayman; CAS 154447-36-6), Bafilomycin A1 (Cayman; CAS88899-55-2) were used as cell death inhibitors. Next, we investigated the Sertoli cell death pathway caused by BC treatment. Testes from neonatal pups were pre-treated with 1% DMSO (as a control) or with cell death pathway inhibitors, pan-caspase inhibitor, 2,6-difluorophenoxymethylketone-based inhibitor (Q-VD-OPH), necrosis inhibitor (Necrostatin-1) and autophagy inhibitors, Spautin-1, LY294002, or Bafilomycin A1, for 30 min. Pre-treatments were followed by a 10 min BC treatment, washing, and culture in the presence of the inhibitor for 4 days (FIG. 3).
For `Cn1cnc(N)c2ncnc1-2` [3MA, 3-Methyladenine], the “rescue of Sertoli cells after BC treatment” value (shortened to “rescue of Sertoli cells”) was “partially rescued Sertoli cells”. For `CO/C1=C\C(C)=C\[C@@H](C)[C@@H](O)[C@@H](C)C/C(C)=C/C=C/[C@H](OC)[C@@H]([C@@H](C)[C@@H](O)[C@H](C)[C@@]2(O)C[C@@H](O)[C@H](C)[C@@H](C(C)C)O2)OC1=O` [Bafilomycin A1], the “rescue of Sertoli cells” value was “partially rescued Sertoli cells”. With `CN1C(=O)C(Cc2c[nH]c3ccccc23)NC1=S` (centres unmarked) [Necrostatin-1] the “rescue of Sertoli cells” value was “did not rescue Sertoli cells”. For `COC(=O)C[C@H](NC(=O)[C@@H](NC(=O)c1ccc2ccccc2n1)C(C)C)C(=O)COc1c(F)cccc1F` [Q-VD-OPH], the “rescue of Sertoli cells” value was “did not rescue Sertoli cells”. For `Fc1ccc(CNc2ncnc3ccc(F)cc23)cc1` [Spautin-1], the “rescue of Sertoli cells” value was “partially rescued Sertoli cells”.
